According to PubChem BioAssay (NCI):
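Cultured in 96-well plates, cells were exposed to test compound for 48 hours across five concentrations. At the GI50, growth is halved. TGI: total growth inhibition.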

Columns and labels:
Assay in all cases: growth of human tumour cells (NCI), 48 h
HOP-62 NSCLC = tested on: HOP-62 NSCLC
OVCAR-3 ovarian = tested on: OVCAR-3 ovarian
KM12 colon = tested on: KM12 colon
SK-MEL-2 melanoma = tested on: SK-MEL-2 melanoma
SF-539 CNS = tested on: SF-539 CNS
U251 CNS = tested on: U251 CNS
MALME-3M melanoma = tested on: MALME-3M melanoma
UO-31 renal = tested on: UO-31 renal
COLO 205 colon = tested on: COLO 205 colon
NCI-H522 lung = tested on: NCI-H522 lung
SK-MEL-28 melanoma = tested on: SK-MEL-28 melanoma
A498 renal = tested on: A498 renal
MDA-MB-435 = tested on: MDA-MB-435
PC-3 prostate = tested on: PC-3 prostate
SF-295 CNS = tested on: SF-295 CNS
SW-620 colon = tested on: SW-620 colon
TK-10 renal = tested on: TK-10 renal
SR leukemia = tested on: SR leukemia
M14 melanoma = tested on: M14 melanoma
IGROV1 ovarian = tested on: IGROV1 ovarian
HCT-116 colon = tested on: HCT-116 colon
CCRF-CEM leukemia = tested on: CCRF-CEM leukemia
RPMI-8226 leukemia = tested on: RPMI-8226 leukemia
DU-145 prostate = tested on: DU-145 prostate
SN12C renal = tested on: SN12C renal
HCT-15 colon = tested on: HCT-15 colon
MDA-MB-231 breast = tested on: MDA-MB-231 breast
NCI-H226 lung = tested on: NCI-H226 lung
OVCAR-4 ovarian = tested on: OVCAR-4 ovarian
HOP-92 NSCLC = tested on: HOP-92 NSCLC
A549 NSCLC = tested on: A549 NSCLC
MCF7 breast = tested on: MCF7 breast
UACC-257 melanoma = tested on: UACC-257 melanoma
SNB-19 CNS = tested on: SNB-19 CNS
K-562 leukemia = tested on: K-562 leukemia
SNB-75 CNS = tested on: SNB-75 CNS
SK-MEL-5 melanoma = tested on: SK-MEL-5 melanoma
OVCAR-8 ovarian = tested on: OVCAR-8 ovarian
OVCAR-5 ovarian = tested on: OVCAR-5 ovarian
MOLT-4 leukemia = tested on: MOLT-4 leukemia
786-0 renal = tested on: 786-0 renal
NCI/ADR-RES ovarian = tested on: NCI/ADR-RES ovarian
ACHN renal = tested on: ACHN renal
LOX IMVI melanoma = tested on: LOX IMVI melanoma
HL-60(TB) leukemia = tested on: HL-60(TB) leukemia
T-47D breast = tested on: T-47D breast
CAKI-1 renal = tested on: CAKI-1 renal
EKVX NSCLC = tested on: EKVX NSCLC
NCI-H460 lung = tested on: NCI-H460 lung
HS 578T breast = tested on: HS 578T breast
SK-OV-3 ovarian = tested on: SK-OV-3 ovarian
HT29 colon = tested on: HT29 colon
RXF 393 renal = tested on: RXF 393 renal
HCC-2998 colon = tested on: HCC-2998 colon
BT-549 breast = tested on: BT-549 breast
NCI-H23 lung = tested on: NCI-H23 lung
UACC-62 melanoma = tested on: UACC-62 melanoma
SF-268 CNS = tested on: SF-268 CNS

SMILES: Cn1nc(N)c2cc([C@@H]3Nc4ccc5[nH]ncc5c4[C@H]4C5CCC(C5)[C@@H]34)ccc21 (stereo partly specified)
- GI50 (HOP-62 NSCLC): 603 nM
- TGI (HOP-62 NSCLC): 25.5 µM
- GI50 (OVCAR-3 ovarian): 337 nM
- TGI (OVCAR-3 ovarian): 4.07 µM
- GI50 (KM12 colon): 486 nM
- TGI (KM12 colon): 15.2 µM
- GI50 (SK-MEL-2 melanoma): 11.1 µM
- TGI (SK-MEL-2 melanoma): 39.4 µM
- GI50 (SF-539 CNS): 333 nM
- TGI (SF-539 CNS): 5.09 µM
- GI50 (U251 CNS): 618 nM
- TGI (U251 CNS): 23.2 µM
- GI50 (MALME-3M melanoma): 442 nM
- TGI (MALME-3M melanoma): 32.7 µM
- GI50 (UO-31 renal): 831 nM
- TGI (UO-31 renal): 40.8 µM
- GI50 (COLO 205 colon): 431 nM
- TGI (COLO 205 colon): 13 µM
- GI50 (NCI-H522 lung): 474 nM
- TGI (NCI-H522 lung): 24 µM
- GI50 (SK-MEL-28 melanoma): 4.35 µM
- TGI (SK-MEL-28 melanoma): 29.1 µM
- GI50 (A498 renal): 225 nM
- TGI (A498 renal): 1150 nM
- GI50 (MDA-MB-435): 166 nM
- TGI (MDA-MB-435): 437 nM
- GI50 (PC-3 prostate): 418 nM
- TGI (PC-3 prostate): 19.8 µM
- GI50 (SF-295 CNS): 320 nM
- TGI (SF-295 CNS): 11.7 µM
- GI50 (SW-620 colon): 391 nM
- TGI (SW-620 colon): 28 µM
- GI50 (TK-10 renal): 19.6 µM
- TGI (TK-10 renal): > 100 µM
- GI50 (SR leukemia): 426 nM
- TGI (SR leukemia): > 100 µM
- GI50 (M14 melanoma): 372 nM
- TGI (M14 melanoma): 9.98 µM
- GI50 (IGROV1 ovarian): 756 nM
- TGI (IGROV1 ovarian): 22.8 µM
- GI50 (HCT-116 colon): 448 nM
- TGI (HCT-116 colon): 13.9 µM
- GI50 (CCRF-CEM leukemia): 377 nM
- TGI (CCRF-CEM leukemia): > 43.4 µM
- GI50 (RPMI-8226 leukemia): 360 nM
- TGI (RPMI-8226 leukemia): 3.69 µM
- GI50 (DU-145 prostate): 438 nM
- TGI (DU-145 prostate): 37.7 µM
- GI50 (SN12C renal): 612 nM
- TGI (SN12C renal): 21.2 µM
- GI50 (HCT-15 colon): 425 nM
- TGI (HCT-15 colon): 14 µM
- GI50 (MDA-MB-231 breast): 2310 nM
- TGI (MDA-MB-231 breast): 16.8 µM
- GI50 (NCI-H226 lung): 1140 nM
- TGI (NCI-H226 lung): 23.5 µM
- GI50 (OVCAR-4 ovarian): 2670 nM
- TGI (OVCAR-4 ovarian): > 95 µM
- GI50 (HOP-92 NSCLC): 1510 nM
- TGI (HOP-92 NSCLC): 17.9 µM
- GI50 (A549 NSCLC): 699 nM
- TGI (A549 NSCLC): > 100 µM
- GI50 (MCF7 breast): 327 nM
- TGI (MCF7 breast): 18.4 µM
- GI50 (UACC-257 melanoma): 15.9 µM
- TGI (UACC-257 melanoma): 59.5 µM
- GI50 (SNB-19 CNS): 2340 nM
- TGI (SNB-19 CNS): 34.8 µM
- GI50 (K-562 leukemia): 324 nM
- TGI (K-562 leukemia): > 100 µM
- GI50 (SNB-75 CNS): 152 nM
- TGI (SNB-75 CNS): 3.27 µM
- GI50 (SK-MEL-5 melanoma): 363 nM
- TGI (SK-MEL-5 melanoma): 12.7 µM
- GI50 (OVCAR-8 ovarian): 979 nM
- TGI (OVCAR-8 ovarian): > 88.2 µM
- GI50 (OVCAR-5 ovarian): 1480 nM
- TGI (OVCAR-5 ovarian): 23.4 µM
- GI50 (MOLT-4 leukemia): 556 nM
- TGI (MOLT-4 leukemia): > 51 µM
- GI50 (786-0 renal): 586 nM
- TGI (786-0 renal): 18.1 µM
- GI50 (NCI/ADR-RES ovarian): 400 nM
- TGI (NCI/ADR-RES ovarian): 10 µM
- GI50 (ACHN renal): 593 nM
- TGI (ACHN renal): 41.1 µM
- GI50 (LOX IMVI melanoma): 515 nM
- TGI (LOX IMVI melanoma): 15.7 µM
- GI50 (HL-60(TB) leukemia): 381 nM
- TGI (HL-60(TB) leukemia): 6.46 µM
- GI50 (T-47D breast): 471 nM
- TGI (T-47D breast): 58.8 µM
- GI50 (CAKI-1 renal): 334 nM
- TGI (CAKI-1 renal): 33.4 µM
- GI50 (EKVX NSCLC): 732 nM
- TGI (EKVX NSCLC): 67 µM
- GI50 (NCI-H460 lung): 402 nM
- TGI (NCI-H460 lung): 11.6 µM
- GI50 (HS 578T breast): 373 nM
- TGI (HS 578T breast): 43.4 µM
- GI50 (SK-OV-3 ovarian): 1160 nM
- TGI (SK-OV-3 ovarian): 69.1 µM
- GI50 (HT29 colon): 387 nM
- TGI (HT29 colon): > 38.1 µM
- GI50 (RXF 393 renal): 227 nM
- TGI (RXF 393 renal): 825 nM
- GI50 (HCC-2998 colon): 1500 nM
- TGI (HCC-2998 colon): 13.4 µM
- GI50 (BT-549 breast): 1010 nM
- TGI (BT-549 breast): 12.3 µM
- GI50 (NCI-H23 lung): 643 nM
- TGI (NCI-H23 lung): 17.4 µM
- GI50 (UACC-62 melanoma): 425 nM
- TGI (UACC-62 melanoma): 17.7 µM
- GI50 (SF-268 CNS): 1320 nM
- TGI (SF-268 CNS): 41 µM
